Holding throughout (assay type): functional
For assay [1], the system named is Klebsiella pneumoniae. In words: Antibacterial activity against Klebsiella pneumoniae by cup-plate method.
The subject of assay [2] is Staphylococcus aureus. In words: Antibacterial activity against Staphylococcus aureus by cup-plate method.
Assay [3] deals with Metaphire posthuma. In words: Antihelminthic activity against Metaphire posthuma assessed as time of occurrence of death.
In assay [4] the test system is Aspergillus niger. The experiment in a line: Antifungal activity against Aspergillus niger by cup-plate method.
Assay [5] concerns Metaphire posthuma. The experiment in a line: Antihelminthic activity against Metaphire posthuma assessed as time of occurrence of paralysis.
Assay [6] deals with Candida albicans. In words: Antifungal activity against Candida albicans by cup-plate method.

In the case of `O=C(O)c1cn(C2CC2)c2cc(N3CCNCC3)c(F)cc2c1=O` [CIPROFLOXACIN], the “inhibition zone (IZ)” value in assay [1] amounted to 26 mm; in assay [2], 24 mm.
With `CC(=O)Nc1ccc(S(=O)(=O)N2CCN(CCCC3C(C)=NCCN=C3c3ccccc3)CC2)cc1` (stereo unspecified), the Time in assay [3] was 111 min; in assay [5] it was 91 min. Moreover, the “inhibition zone (IZ)” value in assay [1] was determined as 19 mm; in assay [4] it was 20 mm; in assay [2] it was 20 mm; in assay [6], 20 mm.
Consider `CC(=O)Nc1ccc(S(=O)(=O)N2CCN(CCCC3C(c4ccccc4)=NCCN=C3c3ccccc3)CC2)cc1`, for which the figures for the Time in assay [3] and in assay [5] were 110 min and 93 min, respectively. The “inhibition zone (IZ)” value in assay [1] is 19 mm; in assay [4] it was 18 mm; in assay [2], 17 mm; in assay [6] it was 19 mm.
Regarding `C1CNCCN1.C1CNCCN1.C1CNCCN1.O.O=C(O)CC(O)(CC(=O)O)C(=O)O.O=C(O)CC(O)(CC(=O)O)C(=O)O` [PIPERAZINE CITRATE], the results for the Time in assay [3] and in assay [5] were 125 min and 100 min, respectively.
In the case of `Cc1cc(C2CCCCC2)n(O)c(=O)c1.NCCO` [CICLOPIROX OLAMINE], the figures for the “inhibition zone (IZ)” value in assay [4] and in assay [6] were 22 mm and 24 mm, respectively.
As for `CC(=O)Nc1ccc(S(=O)(=O)N2CCN(CCCC3C(C)=NCCN=C3C)CC2)cc1`, the Time in assay [3] was found to be 103 min; in assay [5] it was 92 min. In addition, the “inhibition zone (IZ)” value in assay [1] is 21 mm; in assay [4], 19 mm; in assay [2], 19 mm; in assay [6], 21 mm.
As for `CC(=O)Nc1ccc(S(=O)(=O)N2CCN(CCCC3C(=O)NCCNC3=O)CC2)cc1`, the Time is 122 min in assay [3] and 103 min in assay [5]. Besides, the “inhibition zone (IZ)” value was determined as 15 mm in assay [1], 15 mm in assay [4], 13 mm in assay [2] and 13 mm in assay [6].
`CC(=O)Nc1ccc(S(=O)(=O)N2CCN(CCCC3C(=O)NCCN=C3C)CC2)cc1` (stereo unspecified): the Time in assay [3] amounted to 119 min; in assay [5], 102 min. Besides, the “inhibition zone (IZ)” value is listed as 17 mm in assay [1], 17 mm in assay [4], 16 mm in assay [2] and 16 mm in assay [6].

These data come from ChEMBL document CHEMBL3045277, “Synthesis and biological activity of novel 1H-1,4-diazepines containing benzene sulfonyl piperazine moiety” (2011).
